From ChEMBL document CHEMBL4118096, “Branched Peptides: Acridine and Boronic Acid Derivatives as Antimicrobial Agents” (ACS Med Chem Lett, 2017)
≈ marks a conversion by molar mass, not a printed value. Where a SMILES comes first, the peptide text is derived from it. The star is where a group is joined. Benzoyl(4-B(OH)2) = O=C(c1ccc(B(O)O)cc1)*; Acridin9yl = c1ccc2c(*)c3ccccc3nc2c1; Bz = O=C(c1ccccc1)*

How the values were obtained:
Candida albicans [1] = assay: Antifungal activity against Candida albicans measured on day 4 by broth microdilution method; format: functional; details: 96 h
Escherichia coli = assay: Antimicrobial activity against Escherichia coli C ATCC 13706 measured on day 4 by broth microdilution method; format: functional; details: C ATCC 13706, 96 h
Staphylococcus aureus = assay: Antimicrobial activity against Staphylococcus aureus ATCC 6538 measured on day 4 by broth microdilution method; format: functional; details: ATCC 6538, 96 h
[2] = tested on: Mycolicibacterium smegmatis; assay: Antimicrobial activity against Mycobacterium smegmatis ATCC 607 measured on day 4 by broth microdilution method; format: functional; details: ATCC 607, 96 h
Aspergillus niger = assay: Antifungal activity against Aspergillus niger measured on day 4 by broth microdilution method; format: functional; details: 96 h
[3] = Safety index, ratio of EC10 for hemolytic activity in sheep RBC to MIC for Candida albicans; format: toxicity; details: sheep red blood cells
Candida albicans [4] = assay: Induction of membrane lysis in Candida albicans assessed as maltase release at MIC after 60 mins relative to control; format: functional
Saccharomyces cerevisiae = assay: Induction of membrane lysis activity in Saccharomyces cerevisiae assessed as maltase release at MIC after 60 mins relative to control; format: functional
Candida albicans [5] = assay: Antibiofilm activity against Candida albicans VT1406 after 24 hrs by XXT/PMS dye based assay; format: functional; details: VT1406, 24 h
Candida albicans [6] = assay: Antifungal activity against Candida albicans VT1406 in cell suspension after 24 hrs by XXT/PMS dye based assay; format: functional; details: VT1406, 24 h
U-87 MG = assay: Cytotoxicity against human U87 cells assessed as decrease in cell viability at 10 uM after 24 hrs by MTT assay; format: cell-based; details: u-87mg atcc
Erythrocyte = assay: Hemolytic activity in sheep RBC measured after 15 mins; format: ADME, cell-based, Ovis aries; details: 0.25 h

MIC (Candida albicans [1]) [µg/mL]	MIC (Escherichia coli) [µg/mL]	MIC (Staphylococcus aureus) [µg/mL]	MIC [2] [µg/mL]	MIC (Aspergillus niger) [µg/mL]	MIC (Candida albicans [5]) [µg/mL]	MIC (Candida albicans [6]) [µg/mL]	Compound	selectivity ratio [3]	Activity (Candida albicans [4]) [%]	Activity (Saccharomyces cerevisiae) [%]	Activity (U-87 MG)	EC10 (Erythrocyte) [µg/mL]
8 (≈ 4.77 µM)	8 (≈ 4.77 µM)	62.5 (≈ 37.3 µM)	62.5 (≈ 37.3 µM)	125 (≈ 74.6 µM)	–	–	CC(C)C[C@H](NC(=O)[C@H](CCCCN)NC(=O)[C@H](CCCCN)NC(=O)[C@H](CCCCN)NC(=O)[C@H](CCCCNC(=O)c1ccccc1)NC(=O)[C@H](CCCCN)NC(=O)[C@H](CCCCN)NC(=O)[C@@H](N)CCCCNC(=O)c1ccccc1)C(=O)N[C@@H](CCCCNC(=O)c1ccc(B(O)O)cc1)C(=O)N[C@@H](Cc1ccc(O)cc1)C(=O)O (H-K(Bz)KKK(Bz)KKKLK(Benzoyl(4-B(OH)2))Y-OH)	–	–	–	–	–
4 (≈ 2.39 µM)	32 (≈ 19.1 µM)	32 (≈ 19.1 µM)	62.5 (≈ 37.3 µM)	125 (≈ 74.6 µM)	–	–	CC(C)C[C@H](NC(=O)[C@H](CCCCN)NC(=O)[C@H](CCCCN)NC(=O)[C@H](CCCCNC(=O)c1ccccc1)NC(=O)[C@H](CCCCN)NC(=O)[C@H](CCCCN)NC(=O)[C@H](CCCCNC(=O)c1ccccc1)NC(=O)[C@@H](N)CCCCN)C(=O)N[C@@H](CCCCNC(=O)c1ccc(B(O)O)cc1)C(=O)N[C@@H](Cc1ccc(O)cc1)C(=O)O (H-KK(Bz)KKK(Bz)KKLK(Benzoyl(4-B(OH)2))Y-OH)	–	18	0.4	–	–
1 (≈ 0.648 µM)	16 (≈ 10.4 µM)	62.5 (≈ 40.5 µM)	32 (≈ 20.7 µM)	250 (≈ 162 µM)	–	–	NCCCC[C@H](NC(=O)[C@H](CCCCNC(=O)c1ccccc1)NC(=O)[C@H](CCCCNC(=O)c1ccccc1)NC(=O)[C@H](CCCCN)NC(=O)[C@H](CCCCN)NC(=O)[C@H](CCCCN)NC(=O)[C@H](CCCCN)NC(=O)[C@H](CCCCN)NC(=O)[C@@H](N)CCCCN)C(=O)N[C@@H](Cc1ccc(O)cc1)C(=O)O (H-KKKKKKK(Bz)K(Bz)KY-OH)	–	–	–	–	–
2 (≈ 1.4 µM)	32 (≈ 22.5 µM)	62.5 (≈ 43.9 µM)	32 (≈ 22.5 µM)	125 (≈ 87.8 µM)	–	–	CC(C)C[C@H](NC(=O)[C@H](CCCCNC(=O)c1ccccc1)NC(=O)[C@H](CCCCN)NC(=O)[C@H](CCCCN)NC(=O)[C@H](CCCCN)NC(=O)[C@H](CCCCN)NC(=O)[C@H](CCCCN)NC(=O)[C@@H](N)CCCCN)C(=O)N[C@@H](CCCCN)C(=O)N[C@@H](Cc1ccc(O)cc1)C(=O)O (H-KKKKKKK(Bz)LKY-OH)	–	<1	1	–	–
1 (≈ 0.702 µM)	8 (≈ 5.62 µM)	62.5 (≈ 43.9 µM)	32 (≈ 22.5 µM)	125 (≈ 87.8 µM)	–	–	CC(C)C[C@H](NC(=O)[C@H](CCCCN)NC(=O)[C@H](CCCCN)NC(=O)[C@H](CCCCN)NC(=O)[C@H](CCCCN)NC(=O)[C@H](CCCCN)NC(=O)[C@H](CCCCN)NC(=O)[C@@H](N)CCCCN)C(=O)N[C@@H](CCCCNC(=O)c1ccccc1)C(=O)N[C@@H](Cc1ccc(O)cc1)C(=O)O (H-KKKKKKKLK(Bz)Y-OH)	–	4	1.8	–	–

The next lines start with the compound.

Compound	MIC (Candida albicans [1]) [µg/mL]	MIC (Escherichia coli) [µg/mL]	MIC (Staphylococcus aureus) [µg/mL]	MIC [2] [µg/mL]	MIC (Aspergillus niger) [µg/mL]	MIC (Candida albicans [5]) [µg/mL]	MIC (Candida albicans [6]) [µg/mL]	selectivity ratio [3]	Activity (Candida albicans [4]) [%]	Activity (Saccharomyces cerevisiae) [%]	Activity (U-87 MG)	EC10 (Erythrocyte) [µg/mL]
CC(C)C[C@H](NC(=O)[C@H](CCCCN)NC(=O)[C@H](CCCCN)NC(=O)[C@H](CCCCNc1c2ccccc2nc2ccccc12)NC(=O)[C@H](CCCCN)NC(=O)[C@H](CCCCN)NC(=O)[C@H](CCCCNc1c2ccccc2nc2ccccc12)NC(=O)[C@@H](N)CCCCN)C(=O)N[C@@H](CCCCNC(=O)c1ccc(B(O)O)cc1)C(=O)N[C@@H](Cc1ccc(O)cc1)C(=O)O (H-KK(Acridin9yl)KKK(Acridin9yl)KKLK(Benzoyl(4-B(OH)2))Y-OH)	2 (≈ 1.1 µM)	2 (≈ 1.1 µM)	8 (≈ 4.39 µM)	32 (≈ 17.6 µM)	32 (≈ 17.6 µM)	1 (≈ 0.549 µM)	2 (≈ 1.1 µM)	> 100	1	1.4	Non-Toxic	> 250
CC(C)C[C@H](NC(=O)[C@H](CC(C)C)NC(=O)[C@H](CCCCN)NC(=O)[C@H](CCCCNC(=O)c1ccc(B(O)O)cc1)NC(=O)[C@H](CCCCN)NC(=O)[C@H](CCCCN)NC(=O)[C@H](CCCCNC(=O)c1ccc(B(O)O)cc1)NC(=O)[C@@H](N)CCCCN)C(=O)N[C@@H](CCCCN)C(=O)N[C@@H](Cc1ccc(O)cc1)C(=O)O (H-KK(Benzoyl(4-B(OH)2))KKK(Benzoyl(4-B(OH)2))KLLKY-OH)	16 (≈ 10 µM)	16 (≈ 10 µM)	62.5 (≈ 39 µM)	62.5 (≈ 39 µM)	125 (≈ 78.1 µM)	–	–	–	–	–	–	–
CC(C)C[C@H](NC(=O)[C@H](CCCCN)NC(=O)[C@H](CCCCNC(=O)c1ccc(B(O)O)cc1)NC(=O)[C@H](CCCCN)NC(=O)[C@H](CCCCN)NC(=O)[C@H](CCCCNC(=O)c1ccc(B(O)O)cc1)NC(=O)[C@H](CCCCN)NC(=O)[C@@H](N)CCCCN)C(=O)N[C@@H](CCCCNC(=O)c1ccc(B(O)O)cc1)C(=O)N[C@@H](Cc1ccc(O)cc1)C(=O)O (H-KKK(Benzoyl(4-B(OH)2))KKK(Benzoyl(4-B(OH)2))KLK(Benzoyl(4-B(OH)2))Y-OH)	8 (≈ 4.54 µM)	16 (≈ 9.07 µM)	62.5 (≈ 35.4 µM)	62.5 (≈ 35.4 µM)	125 (≈ 70.9 µM)	–	–	–	–	–	–	–
CC(C)C[C@H](NC(=O)[C@H](CCCCNc1c2ccccc2nc2ccccc12)NC(=O)[C@H](CCCCN)NC(=O)[C@H](CCCCN)NC(=O)[C@H](CCCCN)NC(=O)[C@H](CCCCN)NC(=O)[C@H](CCCCN)NC(=O)[C@@H](N)CCCCN)C(=O)N[C@@H](CCCCN)C(=O)N[C@@H](Cc1ccc(O)cc1)C(=O)O (H-KKKKKKK(Acridin9yl)LKY-OH)	1 (≈ 0.668 µM)	16 (≈ 10.7 µM)	16 (≈ 10.7 µM)	16 (≈ 10.7 µM)	62.5 (≈ 41.8 µM)	62.5 (≈ 41.8 µM)	1 (≈ 0.668 µM)	> 100	1	0.95	Non-Toxic	175 (≈ 117 µM)
